Structures are written as SMILES.

The test deals with P. putida F1. Kind of test: Growth of P. putida F1 test tube cultures in MMC medium with ICR 191 (mutation procedure 1). Format: cell-based, Pseudomonas putida. Particulars: 16 to 18 hour incubation, 30° C., dark. On the procedure:
In procedure 1, cells were grown overnight in TSB at 30° C. and diluted 10^-4 with phosphate buffer (100 mM, pH 7.2). Several 18×150 mm test tubes containing 3 ml of MMC medium plus 0 (control), 10, 20, 30, 40, 50, 75, or 100 mg/l ICR 191 were inoculated with 0.1 ml of the diluted inoculum. Test tube cultures were incubated in the dark at 30° C. with 220 RPM agitation. […] The cells from 20 mg/l ICR 191 culture were harvested by centrifugation, washed twice with phosphate buffer.

Turning to `COc1ccc2nc3cc(Cl)ccc3c(NCCCNCCCl)c2c1` [ICR 191], where the note is “10 mg/l ICR 191”, the effect on growth entry is given as “no detectable effect on growth”. Further, the “level of growth relative to control” value (20 mg/l ICR 191) is listed as “approximately half that of the control”. For the same compound, the growth of culture result runs as follows: (30 mg/l ICR 191) “a trace of growth”; (ICR 191 concentrations above 30 mg/l) “completely inhibited growth”.

The record behind these values is US5824540A, “Pseudomonas putida strain with dioxygenase activity” (Merck & Co., Inc., priority 1996, dated 1998).
